The values that follow come from US10526292B2 (Parion Sciences, Inc., priority 2012, dated 2020).

The subject of one series is ExLac rats. The experiment in a line: Tear volume in rat model of dry eye disease (lacrimal gland excision, ExLac Model). It counts as in vivo, Sprague Dawley rats. Particulars: 5 μl test article solution per eye, tear volume by ZoneQuick thread over 6 h. As to the method: The effects of compounds on tear volume was assessed in a rat model of dry eye disease in which Sprague Dawley rats undergo surgical lacrimal gland excision (ExLac Model) to reduce normal tear volume. The lacrimal excision reduces normal tear volume by ˜50% (Table 2).
Both the ipsilateral and contralateral eyes were dosed with 5 μl of test article solution. Tear production was measured using the ZoneQuick cotton thread with impregnated phenol red dye. The folded end of the thread was held in the lateral-ventral conjunctival cul-de-sac for 10 seconds. The length of tear wicking onto the thread was determined by measuring the length of the thread that changes color from yellow to red. Use of a stereomicroscope was assist in the accurate measurement (recorded in millimeters) of the wicking/color change. Tear volume was assessed pre-dose, and 15, 30, 60, 120, and 360 minute post-dose. For reference, the effect of a saline vehicle is shown for ExLac rats and normal (no lacrimal excision surgery) rats.

Series [1] in a line: In vitro drug metabolism: hepatocyte stability, rat. It counts as in vitro ADME. Particulars: rat hepatocyte suspension, 10 μM, 37° C., up to six hours. On the procedure: (§1) The metabolic stability of 9 and 15 was assessed in plasma (rat, rabbit, dog and human) and hepatocytes (rat and dog). Compounds were added either directly to plasma or to hepatocyte suspensions at a final concentration of 2.5 or 10 μM, respectively, and incubated at 37° C. for up to six hours. Aliquots were removed at various time points and quenched. The amount of parent compound was quantified via UPLC-fluorescence analysis. The amount of parent compound remaining was calculated based on the total peak area at the time of sampling divided by the total peak area at initiation.

A short description of series [2]: In vitro drug metabolism: hepatocyte stability, dog. The series is classed as in vitro ADME. Conditions: dog hepatocyte suspension, 10 μM, 37° C., up to six hours. On the procedure: as §1
The nature of series [3]: In vitro drug metabolism: plasma stability, rat. The series is classed as in vitro ADME. Conditions: 2.5 μM, 37° C., up to six hours. As to the method:
as §1

Series [4] can be described thus: In vitro drug metabolism: plasma stability, rabbit. The series is classed as in vitro ADME. Particulars: 2.5 μM, 37° C., up to six hours. As to the method: as §1
Series [5] can be described thus: In vitro drug metabolism: plasma stability, dog. It counts as in vitro ADME. Particulars: 2.5 μM, 37° C., up to six hours. On the procedure: as §1
Series [6] can be described thus: In vitro drug metabolism: plasma stability, human. The series is classed as in vitro ADME. Particulars: 2.5 μM, 37° C., up to six hours. On the procedure: as §1
Series [7] is described as follows: In vitro drug metabolism: summary in words for plasma and hepatocytes among the species evaluated. The series is classed as in vitro ADME. Conditions: plasma (rat, rabbit, dog, human) and hepatocytes (rat, dog). On the procedure: as §1
A short description of series [8]: Confocal microscopy assay of amiloride congener transport. The series is classed as in vitro ADME. Particulars: applied to apical (epithelial) surface of mouse corneas, one hour at 37 C. From the text:
Serial x-y images were obtained one hour post-drug addition by confocal microsopy.

Another series has as its system rats. Particulars: topical addition; cited from earlier work.
Another series relates to rabbits. Conditions: topical addition; cited from earlier work.

SMILES strings stand for the structures. Some results are limits rather than exact numbers.

As to `N=C(NCCCCc1ccc(OCCN(CCCN)CCCN)cc1)NC(=O)c1nc(Cl)c(N)nc1N` [Compound 45, 3,5-diamino-N—(N-(4-(4-(2-(bis(3-aminopropyl)amino)ethoxy)phenyl)butyl)carbamimidoyl)-6-chloropyrazine-2-carboxamide], the “6 h Ocular Hydration (AUC0-6)” value in the series on ExLac rats is reported as 42.3. Also, the “Hepatocyte Stability (amount of parent compound remaining)” value in series [1] is given as 83%; in series [2], 75%.

Take `N=C(N)NCCCC[C@H](N)C(=O)NCCCN(CCCNC(=O)[C@@H](N)CCCCNC(=N)N)CCCN(CCCN(CCCNC(=O)[C@@H](N)CCCCNC(=N)N)CCCNC(=O)[C@@H](N)CCCCNC(=N)N)CCOc1ccc(CCCCNC(=N)NC(=O)c2nc(Cl)c(N)nc2N)cc1` [Compound 82, (2S,2′S,2″S,2′″S)—N,N′,N″,N′″-(3,3′,3″,3′″-(3,3′-(2-(4-(4-(3-(3,5-diamino-6-chloropyrazine-2-carbonyl)guanidino)butyl)phenoxy)ethylazanediyl)bis(propane-3,1-diyl))bis(azanetriyl)tetrakis(propane-3,1-diyl))tetrakis(2-amino-6-guanidinohexanamide)]: in the series with ExLac rats, the “6 h Ocular Hydration (AUC0-6)” value amounted to 49.8.

Turning to `N=C(N)NCCCC[C@H](N)C(=O)NCCCC[C@H](N)C(=O)NCCCC[C@H](N)C(=O)NCCCN(CCCNC(=O)[C@@H](N)CCCCNC(=O)[C@@H](N)CCCCNC(=O)[C@@H](N)CCCCNC(=N)N)CCOc1ccc(CCCCNC(=N)NC(=O)c2nc(Cl)c(N)nc2N)cc1` [Compound 102, (S,S,2S,2′S)—N,N′-(3,3′-(2-(4-(4-(3-(3,5-diamino-6-chloropyrazine-2-carbonyl)guanidino)butyl)phenoxy)ethylazanediyl)bis(propane-3,1-diyl))bis(2-amino-6-((S)-2-amino-6-((S)-2-amino-6-guanidinohexanamido)hexanamido)hexanamide)], the “6 h Ocular Hydration (AUC0-6)” value in the series on ExLac rats is recorded as 43.2.

Turning to `N=C(N)NCCCC[C@@H](N)C(=O)NCCCN(CCCNC(=O)[C@H](N)CCCCNC(=N)N)CCOc1ccc(CCCCNC(=N)NC(=O)c2nc(Cl)c(N)nc2N)c2c1CCCC2` [Compound 133, (2R,2′R)—N,N′-(3,3′-(2-(4-(4-(3-(3,5-diamino-6-chloropyrazine-2-carbonyl)guanidino)butyl)-5,6,7,8-tetrahydronaphthalen-1-yloxy)ethylazanediyl)bis(propane-3,1-diyl))bis(2-amino-6-guanidinohexanamide)], in the series on ExLac rats, the “6 h Ocular Hydration (AUC0-6)” value is listed as 45.7.

For the compound `N=C(N)NCCCC[C@H](N)C(=O)NCCCN(CCCN)CCOc1ccc(CCCCNC(=N)NC(=O)c2nc(Cl)c(N)nc2N)cc1` [Compound 51, (S)-3,5-diamino-N—(N-(4-(4-(2-((3-(2-amino-6-guanidinohexanamido)propyl)(3-aminopropyl)amino)ethoxy)phenyl)butyl)carbamimidoyl)-6-chloropyrazine-2-carboxamide], the “6 h Ocular Hydration (AUC0-6)” value with ExLac rats was 38.0.

For the compound `N=C(NCCCCc1ccc(OCCN(CCCNC(=O)[C@@H](N)CCCCNC(=O)[C@@H](N)CCCCN)CCCNC(=O)[C@@H](N)CCCCNC(=O)[C@@H](N)CCCCN)cc1)NC(=O)c1nc(Cl)c(N)nc1N` [Compound 59, (S,2S,2′S)—N,N′-(3,3′-(2-(4-(4-(3-(3,5-diamino-6-chloropyrazine-2-carbonyl)guanidino)butyl)phenoxy)ethylazanediyl)bis(propane-3,1-diyl))bis(2-amino-6-((S)-2,6-diaminohexanamido)hexanamide)], the “6 h Ocular Hydration (AUC0-6)” value in the series on ExLac rats was 39.7.

Take `N=C(N)NCCCC[C@@H](N)C(=O)NCCCN(CCCNC(=O)[C@@H](N)CCCCNC(=N)N)CCOc1ccc(CCCCNC(=N)NC(=O)c2nc(Cl)c(N)nc2N)cc1` [Compound 90, 3,5-diamino-N—(N-(4-(4-(2-((3-((R)-2-amino-6-guanidinohexanamido)propyl)(3-((S)-2-amino-6-guanidinohexanamido)propyl)amino)ethoxy)phenyl)butyl)carbamimidoyl)-6-chloropyrazine-2-carboxamide]: the “6 h Ocular Hydration (AUC0-6)” value with ExLac rats amounted to 49.0.

With `N=C(N)NCCCC[C@H](N)C(=O)NCCCN(CCCNC(=O)[C@@H](N)CCCCNC(=N)N)CCOc1ccc(CCCCNC(=N)NC(=O)c2nc(Cl)c(N)nc2N)cc1` [Compound 15, (2S,2′S)—N,N′-(3,3′-(2-(4-(4-(3-(3,5-diamino-6-chloropyrazine-2-carbonyl)guanidino)butyl)phenoxy)ethylazanediyl)bis(propane-3,1-diyl))bis(2-amino-6-guanidinohexanamide)], in the series on ExLac rats, the “6 h Ocular Hydration (AUC0-6)” value came out at 50.2. For the same compound, the “Plasma Stability (amount of parent compound remaining)” value was found to be 10% in series [3], 8.7% in series [4], 18% in [5] and 7.6% in [6]. Besides, the “Hepatocyte Stability (amount of parent compound remaining)” value in series [1] stood at 14%; in [2], 19%. For the same compound, the “Stability towards metabolic hydrolysis in plasma and hepatocytes” value in series [7] is listed as “rapidly metabolized”.

For `N=C(N)NC(=O)c1nc(Cl)c(N)nc1N` [Amiloride, amiloride], in the series on ExLac rats, the “6 h Ocular Hydration (AUC0-6)” value is recorded as 30.4. Also, in series [8], the “Penetration of the cornea (confocal x-z image, FIG. 16)” value is “can fully penetrate the cornea”. In the series with rats, the “Change of tear volume” value was “approximate doubling of tear volume” and the “Time tear volume remained elevated post-administration” value was above 60 min. In the series with rabbits, the “Change of tear volume” value was “approximate doubling of tear volume” and the “Time tear volume remained elevated post-administration” value is above 60 min.

In the case of `COC(=O)NC(=N)NCCCC[C@@H](N)C(=O)NCCCN(CCCNC(=O)[C@H](N)CCCCNC(=N)N)CCOc1ccc(CCCCNC(=N)NC(=O)c2nc(Cl)c(N)nc2N)cc1` [Compound 46, 3,5-diamino-N—(N-(4-(4-((R)-11-amino-17-(3-((R)-2-amino-6-guanidinohexanamido)propyl)-5-imino-3,12-dioxo-2-oxa-4,6,13,17-tetraazanonadecan-19-yloxy)phenyl)butyl)carbamimidoyl)-6-chloropyrazine-2-carboxamide], the “6 h Ocular Hydration (AUC0-6)” value with ExLac rats amounted to 39.9.

With `N=C(NCCCC[C@H](N)C(=O)NCCCN(CCCNC(=O)[C@@H](N)CCCCNC(=N)NC(=O)c1ccccc1)CCOc1ccc(CCCCNC(=N)NC(=O)c2nc(Cl)c(N)nc2N)cc1)NC(=O)c1ccccc1` [Compound 75, N,N′-((7S,19S)-7,19-diamino-13-(2-(4-(4-(3-(3,5-diamino-6-chloropyrazine-2-carbonyl)guanidino)butyl)phenoxy)ethyl)-1,25-diimino-8,18-dioxo-2,9,13,17,24-pentaazapentacosane-1,25-diyl)dibenzamide], the “6 h Ocular Hydration (AUC0-6)” value in the series on ExLac rats was found to be 38.2.

As for `N=C(N)NCCCC[C@H](N)C(=O)NCCCN(CCCNC(=O)[C@@H](N)CCCCNC(=N)N)CCCc1ccc(NC(=O)[C@@H](N)Cc2ccc(CCCCNC(=N)NC(=O)c3nc(Cl)c(N)nc3N)cc2)cc1` [Compound 145, (2S,2′S)—N,N′-(3,3′-(3-(4-((S)-2-amino-3-(4-(4-(3-(3,5-diamino-6-chloropyrazine-2-carbonyl)guanidino)butyl)phenyl)propanamido)phenyl)propylazanediyl)bis(propane-3,1-diyl))bis(2-amino-6-guanidinohexanamide)], in the series with ExLac rats, the “6 h Ocular Hydration (AUC0-6)” value is 44.7.

On to `N=C(N)NCCCC[C@@H](N)C(=O)NCCCN(CCCNC(=O)[C@H](N)CCCCNC(=N)N)CCOc1ccc2cc(CCCCNC(=N)NC(=O)c3nc(Cl)c(N)nc3N)ccc2c1` [Compound 116, (2R,2′R)—N,N′-(3,3′-(2-(6-(4-(3-(3,5-diamino-6-chloropyrazine-2-carbonyl)guanidino)butyl)naphthalen-2-yloxy)ethylazanediyl)bis(propane-3,1-diyl))bis(2-amino-6-guanidinohexanamide)], for which the “6 h Ocular Hydration (AUC0-6)” value with ExLac rats was 40.9.

Consider `N=C(N)NCCCC[C@H](NC[C@H](O)[C@@H](O)[C@H](O)[C@H](O)CO)C(=O)NCCCN(CCCNC(=O)[C@H](CCCCNC(=N)N)NC[C@H](O)[C@@H](O)[C@H](O)[C@H](O)CO)CCOc1ccc(CCCCNC(=N)NC(=O)c2nc(Cl)c(N)nc2N)cc1` [Compound 42, (S,R,R,R,2S,2′S)—N,N′-(3,3′-(2-(4-(4-(3-(3,5-diamino-6-chloropyrazine-2-carbonyl)guanidino)butyl)phenoxy)ethylazanediyl)bis(propane-3,1-diyl))bis(6-guanidino-2-((2S,3R,4R,5R)-2,3,4,5,6-pentahydroxyhexylamino)hexanamide)], for which the “6 h Ocular Hydration (AUC0-6)” value in the series with ExLac rats is 52.3.
